Laboratory results taken from PubChem BioAssay (NCI).
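Growth conditions: 96-well plates. Treatment: test compound, 48 hours, 5 concentrations. Analysis: linear interpolation between bracketing concentrations; unreached endpoints set to highest concentration. GI50: concentration for 50% inhibition of growth. TGI is the concentration that stops growth completely.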

Key:
Assay in all cases: NCI anticancer screen, dose series, 48 h
A549 NSCLC = test system: A549 NSCLC
COLO 205 colon = test system: COLO 205 colon
HCT-15 colon = test system: HCT-15 colon
LOX IMVI melanoma = test system: LOX IMVI melanoma
NCI/ADR-RES ovarian = test system: NCI/ADR-RES ovarian
OVCAR-5 ovarian = test system: OVCAR-5 ovarian
SK-MEL-28 melanoma = test system: SK-MEL-28 melanoma
SNB-19 CNS = test system: SNB-19 CNS
SW-620 colon = test system: SW-620 colon
HOP-92 NSCLC = test system: HOP-92 NSCLC

Row | Compound | TGI (A549 NSCLC) [µM] | TGI (COLO 205 colon) [µM] | TGI (HCT-15 colon) [µM] | TGI (LOX IMVI melanoma) [µM] | TGI (NCI/ADR-RES ovarian) [µM] | TGI (OVCAR-5 ovarian) [µM] | TGI (SK-MEL-28 melanoma) [µM] | TGI (SNB-19 CNS) [µM] | TGI (SW-620 colon) [µM] | TGI (HOP-92 NSCLC) [µM] | GI50 (A549 NSCLC) [µM] | GI50 (COLO 205 colon) [µM] | GI50 (HCT-15 colon) [µM] | GI50 (HOP-92 NSCLC) [nM] | GI50 (LOX IMVI melanoma) [µM] | GI50 (NCI/ADR-RES ovarian) [µM] | GI50 (SK-MEL-28 melanoma) [nM] | GI50 (SNB-19 CNS) [nM] | GI50 (SW-620 colon) [µM] | GI50 (OVCAR-5 ovarian) [nM]
1 | CN(C)CCOc1ccc(I)cc1Cc1ccccc1 | 30.5 | 26.7 | 25.1 | 19.2 | 29.8 | 29.7 | 16.6 | 28 | 32.4 | – | – | – | – | – | – | – | – | – | – | –
2 | CC(C)Nc1[nH]c(C(=O)c2ccccc2)c(N)c1C(=S)Nc1ccccc1 | > 100 | 97.5 | > 100 | 80.4 | > 100 | > 100 | 35.1 | > 100 | > 100 | > 100 | – | – | – | – | – | – | – | – | – | –
3 | CNNC1=NS(=O)(=O)c2cc(C)c(Cl)cc2S1 | > 10 | > 10 | > 10 | > 10 | > 10 | > 10 | > 10 | > 10 | > 10 | – | – | – | – | – | – | – | – | – | – | –
4 | O=C(O)C(Cc1ccc2c(c1)CCC2)(Cc1ccc2c(c1)CCC2)C(=O)O | > 100 | > 100 | > 100 | > 100 | > 100 | > 100 | > 100 | > 100 | > 100 | – | – | – | – | – | – | – | – | – | – | –
5 | CCOc1ccc2ccccc2c1NC1=NCCO1 | > 100 | > 100 | > 100 | – | > 100 | > 100 | > 100 | > 100 | > 100 | 42.2 | – | – | – | – | – | – | – | – | – | –
6 | COc1ccc(NC(=O)CC(=O)n2nc(C)c(N=Nc3ccc(C)c(C)c3)c2C)cc1 | > 100 | > 100 | – | > 100 | > 100 | > 100 | > 100 | > 100 | > 100 | 65.9 | – | – | – | – | – | – | – | – | – | –
7 | COc1ccc2c(c1)c1nn(CCN(C)C)c3ccc4c(=O)n(CCN(C)C)c(=O)n2c4c13 | 0.0759 | 0.182 | 0.173 | 0.469 | 0.277 | 0.44 | 0.854 | 0.635 | 0.355 | – | – | – | – | – | – | – | – | – | – | –
8 | O=S(=O)(c1cc(Cl)ccc1Cl)N1CCN(c2ccc(Cl)c(Cl)c2)CC1 | > 100 | – | > 100 | > 100 | – | > 100 | > 100 | 32.1 | > 100 | 35.4 | – | – | – | – | – | – | – | – | – | –
9 | CC(=O)N1c2ccccc2C(C)(C)OC1C(Cl)(Cl)Cl (configuration not stated) | > 100 | > 100 | > 100 | – | > 100 | > 100 | > 100 | > 100 | > 100 | 78.9 | – | – | – | – | – | – | – | – | – | –
10 | O=[N+]([O-])c1cccc(N=C2c3ccccc3CN2c2cccc([N+](=O)[O-])c2)c1 | > 100 | > 100 | > 100 | > 100 | – | > 100 | > 100 | > 100 | > 100 | > 100 | – | – | – | – | – | – | – | – | – | –
11 | O=C1Nc2cccc3ncn(c23)C2=C1CCCC2 | > 100 | > 100 | > 100 | > 100 | – | > 100 | > 100 | > 100 | > 100 | – | – | – | – | – | – | – | – | – | – | –
12 | O=C1CC2CC=C[C@H]3c4cc5c(cc4C(=O)N1C23)OCO5 (some centres not stated) | > 50 | > 50 | > 50 | > 50 | – | – | > 50 | > 50 | > 50 | – | – | – | – | – | – | – | – | – | – | –
13 | O=C(O)C(CS)NCc1c2ccccc2[n+]([O-])c2ccccc12 (configuration not stated) | > 100 | > 100 | > 100 | > 100 | – | > 100 | > 100 | > 100 | > 100 | 46.5 | – | – | – | – | – | – | – | – | – | –
14 | COC(=O)C1Cc2ccc(C)cc2C1=O (configuration not stated) | > 100 | > 100 | > 100 | > 100 | > 100 | > 100 | > 100 | > 100 | > 100 | – | – | – | – | – | – | – | – | – | – | –
15 | CC(O)c1c2c(cc3c1CC1(C3)Cc3cc4c(c(C(C)O)c3C1)CCC4)CCC2 (configuration not stated) | 33.1 | 28.6 | 41.1 | 32.8 | 70.4 | 50.2 | – | – | – | 31.6 | – | – | – | – | – | – | – | – | – | –
16 | COC(=O)c1ccc2c(c1)CC1(C2)Cc2cc3c(c(C(=O)OC)c2C1)CCCC3 (configuration not stated) | > 100 | > 100 | > 100 | > 100 | > 100 | > 100 | > 100 | – | > 100 | > 100 | – | – | – | – | – | – | – | – | – | –
17 | CSc1c(C(=O)Nc2ccc(C)cc2)c(N)nn1-c1ccccc1 | > 100 | > 100 | > 100 | > 100 | – | > 100 | > 100 | > 100 | > 100 | 88.1 | – | – | – | – | – | – | – | – | – | –

Row | Compound | TGI (A549 NSCLC) [µM] | TGI (COLO 205 colon) [µM] | TGI (HCT-15 colon) [µM] | TGI (LOX IMVI melanoma) [µM] | TGI (NCI/ADR-RES ovarian) [µM] | TGI (OVCAR-5 ovarian) [µM] | TGI (SK-MEL-28 melanoma) [µM] | TGI (SNB-19 CNS) [µM] | TGI (SW-620 colon) [µM] | TGI (HOP-92 NSCLC) [µM] | GI50 (A549 NSCLC) [µM] | GI50 (COLO 205 colon) [µM] | GI50 (HCT-15 colon) [µM] | GI50 (HOP-92 NSCLC) [nM] | GI50 (LOX IMVI melanoma) [µM] | GI50 (NCI/ADR-RES ovarian) [µM] | GI50 (SK-MEL-28 melanoma) [nM] | GI50 (SNB-19 CNS) [nM] | GI50 (SW-620 colon) [µM] | GI50 (OVCAR-5 ovarian) [nM]
18 | N#Cc1ncn(-c2ccccc2)c1N | > 100 | > 100 | > 100 | > 100 | > 100 | > 100 | > 100 | > 100 | > 100 | – | – | – | – | – | – | – | – | – | – | –
19 | O=C(c1ccccc1)c1nn(-c2ccc(Cl)cc2)c2nc3nc(-c4ccccc4)cc(=O)n3nc12 | > 100 | > 100 | > 100 | > 100 | > 100 | – | > 100 | > 100 | > 100 | 74.7 | 66.3 | 47.2 | 38.2 | 22100 | 28.1 | 35.5 | 53700 | 39900 | 49.5 | –
20 | CSC(SC)=C1C(=O)NN=C1C | > 100 | > 100 | > 100 | > 100 | – | > 100 | > 100 | > 100 | > 100 | > 100 | – | – | – | – | – | – | – | – | – | –
21 | O=[N+]([O-])c1ccc(Cl)cc1-n1nc(-c2ccccc2)cc1-c1ccccc1 | > 100 | > 100 | > 100 | – | > 100 | > 100 | > 100 | > 100 | > 100 | > 100 | – | – | – | – | – | – | – | – | – | –
22 | COc1cc([C@@H]2c3cc4c(cc3[C@H](OC3OC5COC(C(C)C)OC5C(O)C3O)C3COC(=O)[C@@H]32)OCO4)cc(OC)c1O (some centres not stated) | 21.8 | 19.9 | 25.9 | 30 | > 100 | 25 | – | 30.1 | 22.5 | 27.5 | – | – | – | – | – | – | – | – | – | –
23 | O=C1C=C(N2CCCC2)C=C(N2CCCC2)C1 | > 100 | > 100 | > 100 | > 100 | – | > 100 | > 100 | > 100 | > 100 | > 100 | – | – | – | – | – | – | – | – | – | –
24 | O=c1[nH]c2cc(C(F)(F)F)ccc2nc1Cc1ccccc1 | – | > 100 | > 100 | > 100 | > 100 | – | > 100 | > 100 | > 100 | > 100 | – | – | – | – | – | – | – | – | – | –
25 | Clc1ccccc1/C=C/c1nsc(/C=C/c2ccccc2Cl)n1 | > 100 | > 100 | > 100 | > 100 | > 100 | > 100 | > 100 | > 100 | – | > 100 | – | – | – | – | – | – | – | – | – | –
26 | O=C(O)c1cccc(S(=O)(=O)NN2C(=O)CSC2c2ccccc2)c1 (configuration not stated) | > 100 | > 100 | > 100 | > 100 | – | > 100 | > 100 | > 100 | > 100 | > 100 | – | – | – | – | – | – | – | – | – | –
27 | ClC(Cl)(Cl)C1CCOC1n1nc2ccccc2n1 (configuration not stated) | > 100 | > 100 | > 100 | – | > 100 | > 100 | – | – | – | – | – | – | – | – | – | – | – | – | – | –
28 | CCOC(=O)C1(Cc2ccccc2)Cc2cc3c(cc2C1)CCC3 | > 100 | 45.2 | > 100 | 43.9 | > 100 | 66.3 | > 100 | > 100 | > 100 | – | – | – | – | – | – | – | – | – | – | –
29 | Oc1c(C2=NNC(c3cccs3)C2)ccc2ccccc12 (configuration not stated) | > 100 | 37.7 | > 100 | – | 82 | > 100 | > 100 | – | 70.3 | 81.5 | – | – | – | – | – | – | – | – | – | –
30 | O=C(O)CCC(NC(=O)c1ccc(Nc2nc3ccccc3nc2C(=O)O)cc1)C(=O)O (configuration not stated) | > 100 | > 100 | – | – | > 100 | > 100 | > 100 | > 100 | – | > 100 | – | – | – | – | – | – | – | – | – | –
31 | N=C(/C=C/c1ccc(-c2cn3cc(/C=C/C(=N)N4CCCC4)ccc3n2)cc1)N1CCCC1 | > 100 | > 100 | > 100 | – | > 100 | > 100 | > 100 | > 100 | > 100 | > 100 | – | – | – | – | – | – | – | – | – | –
32 | CCOc1ccc(N2C(=O)C3c4[nH]c5ccccc5c4C4CCC(C(C)(C)C)CC4C3C2=O)cc1 (configuration not stated) | > 100 | > 100 | > 100 | – | – | – | > 100 | > 100 | > 100 | > 100 | – | – | – | – | – | – | – | – | – | –
33 | COc1cc(C2CC(c3cccc(Nc4ccncc4)c3)=NN2c2cc(Cl)cc(Cl)c2)cc(OC)c1OC (configuration not stated) | – | – | 3.43 | – | 3.53 | – | 3.31 | 3.02 | 3.2 | 2.44 | – | – | 1.79 | 1120 | – | 1.84 | 1760 | 1610 | 1.67 | –
34 | COc1cc2cc(Oc3ccc(NC(=O)Nc4ccc(F)c(C(F)(F)F)c4)cc3)c(C)nc2cc1OCCN1CCCCC1 | – | – | – | – | – | 3.1 | 3.04 | 3.29 | – | 3.02 | – | – | – | 1520 | – | – | 1650 | 1760 | – | 1720
